According to US20060069132A1, “Azolecarboxamide herbicides” (priority 2004, published 2006):

Experiments:
[1] = test system: barnyardgrass; assay: Test B pre-/postemergence herbicide test; assay type: in vivo, Echinochloa crus-galli; details: for Barnyardgrass plant response rating: postemergence, visual rating, scale 0 (no effect) to 100 (complete control)
Summary of the method: (§1)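 Seeds were planted and treated preemergence with compounds formulated in a non-phytotoxic solvent mixture containing surfactant, while plants at the 1- to 4-leaf stage (2 to 18 cm) received postemergence sprays. Flooded paddy plants were grown to the 2-leaf stage. After 13 to 15 days in a greenhouse, injury was visually rated 0–100 against untreated controls.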

[2] = test system: small flower umbrella sedge; assay: Test B flooded paddy test; assay type: in vivo, Cyperus difformis; details: 1000 g ai/ha, visual rating, scale 0 to 100 (0 no effect, 100 complete control), 13 to 15 days
Summary of the method: (§2)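 Postemergence plants were sprayed with formulated test chemicals at 2 to 18 cm height (1- to 4-leaf stage); paddy species were grown to the 2-leaf stage. After 13 to 15 days in a greenhouse, injury was rated visually against untreated controls on a 0–100 scale (0 = no effect, 100 = complete control).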

[3] = test system: velvetleaf; assay: Test B pre-/postemergence herbicide test; assay type: in vivo, Abutilon theophrasti; details: for Velvetleaf plant response rating: postemergence, visual rating, scale 0 (no effect) to 100 (complete control)
Summary of the method: (§3)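 Flooded paddy rice and barnyardgrass were treated at the 2-leaf stage; upland plantings received compound either on sown seed or on 1- to 4-leaf seedlings. All were kept 13–15 days in a greenhouse and scored visually, 0–100, relative to untreated plants.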

[4] = test system: large crabgrass; assay: Test B pre-/postemergence herbicide test; assay type: in vivo, Digitaria sanguinalis; details: for Crabgrass, Large plant response rating: postemergence, visual rating, scale 0 (no effect) to 100 (complete control)
Summary of the method: as §3

[5] = test system: pigweed; assay: Test B pre-/postemergence herbicide test; assay type: in vivo, Amaranthus retroflexus; details: for Pigweed plant response rating: postemergence, visual rating, scale 0 (no effect) to 100 (complete control)
Summary of the method: as §3

[6] = test system: morningglory; assay: Test B pre-/postemergence herbicide test; assay type: in vivo, Ipomoea coccinea; details: for Morningglory plant response rating: postemergence, visual rating, scale 0 (no effect) to 100 (complete control)
Summary of the method: as §1

[7] = test system: wheat; assay: Test B postemergence herbicide test; assay type: in vivo, Triticum aestivum; parameters: key to Wheat plant response rating: 0 = no effect, 100 = complete control; details: postemergence, visual rating, scale 0 (no effect) to 100 (complete control)
Summary of the method: (§4)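 Read-out: visual comparison with controls, scored 0 to 100, where 100 means complete control and 0 no effect. Formulated chemicals were applied postemergence to plants 2–18 cm tall (1- to 4-leaf), or to flooded-paddy plants at the 2-leaf stage, then held 13 to 15 days under glass.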

[8] = test system: corn; assay: Test B pre-/postemergence herbicide test; assay type: in vivo, Zea mays; details: for Corn plant response rating: postemergence, visual rating, scale 0 (no effect) to 100 (complete control)
Summary of the method: as §3

[9] = test system: giant foxtail; assay: Test B pre-/postemergence herbicide test; assay type: in vivo, Setaria faberi; details: for Foxtail, Giant plant response rating: postemergence, visual rating, scale 0 (no effect) to 100 (complete control)
Summary of the method: as §3

[10] = test system: wild oat; assay: Test B postemergence herbicide test; assay type: in vivo, Avena fatua; details: postemergence, visual rating, scale 0 (no effect) to 100 (complete control)
Summary of the method: as §4

[11] = test system: cocklebur; assay: Test B pre-/postemergence herbicide test; assay type: in vivo, Xanthium strumarium; details: for Cocklebur plant response rating: postemergence, visual rating, scale 0 (no effect) to 100 (complete control)
Summary of the method: as §1

[12] = test system: ducksalad; assay: Test B flooded paddy test; assay type: in vivo, Heteranthera limosa; details: 1000 g ai/ha, visual rating, scale 0 to 100 (0 no effect, 100 complete control), 13 to 15 days
Summary of the method: as §2

[13] = test system: rice; assay: Test B flooded paddy test; assay type: in vivo, Oryza sativa; details: 1000 g ai/ha, visual rating, scale 0 to 100 (0 no effect, 100 complete control), 13 to 15 days
Summary of the method: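 After treating 2-leaf paddy plants or 2–18 cm postemergence plants (1 to 4 leaves) with formulated chemical, researchers kept them in a greenhouse for 13–15 days. Effects were judged visually versus controls: 0 indicates none, 100 total control.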

[14] = test system: Surinam grass; assay: Test B pre-/postemergence herbicide test; assay type: in vivo, Urochloa decumbens; details: for Surinam Grass plant response rating: postemergence, visual rating, scale 0 (no effect) to 100 (complete control)
Summary of the method: as §3

[15] = test system: blackgrass; assay: Test B postemergence herbicide test; assay type: in vivo, Alopecurus myosuroides; details: postemergence, visual rating, scale 0 (no effect) to 100 (complete control)
Summary of the method: as §2

[16] = 125 g ai/ha, 0 = no effect, 100 = complete control, preemergence
[17] = 500 g ai/ha, visual rating 0-100, 0 no effect, 100 complete control, preemergence

CCc1nc(C(C)(C)C)sc1C(=O)Nc1cccc(C(=O)NCC2CC2)c1 [Compound 212]
Barnyardgrass plant response rating (0 to 100 scale) [1, 16]: 80 | Plant response rating, Barnyardgrass [1, 17]: 90 | Barnyardgrass plant response rating ([1]; 125 g ai/ha): 10 | Barnyardgrass plant response rating ([1]; 500 g ai/ha): 20 | Sedge, Umbrella plant response rating [2]: 70 | Velvetleaf plant response rating (0 to 100 scale) [3, 16]: 10 | Plant response rating, Velvetleaf [3, 17]: 80 | Velvetleaf plant response rating ([3]; 125 g ai/ha): 50 | Velvetleaf plant response rating ([3]; 500 g ai/ha): 70 | Crabgrass, Large plant response rating (0 to 100 scale) [4, 16]: 60 | Plant response rating, Crabgrass, Large [4, 17]: 100 | Crabgrass, Large plant response rating ([4]; 125 g ai/ha): 10 | Crabgrass, Large plant response rating ([4]; 500 g ai/ha): 10 | Pigweed plant response rating (0 to 100 scale) [5, 16]: 100 | Plant response rating, Pigweed [5, 17]: 100 | Pigweed plant response rating ([5]; 125 g ai/ha): 60 | Pigweed plant response rating ([5]; 500 g ai/ha): 90 | Morningglory plant response rating (0 to 100 scale) [6, 16]: 0 | Plant response rating, Morningglory [6, 17]: 60 | Morningglory plant response rating ([6]; 125 g ai/ha): 10 | Morningglory plant response rating ([6]; 500 g ai/ha): 50 | Wheat plant response rating ([7]; 125 g ai/ha): 10 | Wheat plant response rating ([7]; 500 g ai/ha): 20 | Corn plant response rating (0 to 100 scale) [8, 16]: 10 | Plant response rating, Corn [8, 17]: 30 | Corn plant response rating ([8]; 125 g ai/ha): 20 | Corn plant response rating ([8]; 500 g ai/ha): 40 | Foxtail, Giant plant response rating (0 to 100 scale) [9, 16]: 70 | Plant response rating, Foxtail, Giant [9, 17]: 100 | Foxtail, Giant plant response rating ([9]; 125 g ai/ha): 10 | Foxtail, Giant plant response rating ([9]; 500 g ai/ha): 40 | Oat, Wild plant response rating ([10]; 125 g ai/ha): 20 | Oat, Wild plant response rating ([10]; 500 g ai/ha): 20 | Cocklebur plant response rating (0 to 100 scale) [11, 16]: 0 | Plant response rating, Cocklebur [11, 17]: 50 | Cocklebur plant response rating ([11]; 125 g ai/ha): 80 | Cocklebur plant response rating ([11]; 500 g ai/ha): 90 | Ducksalad plant response rating [12]: 80 | Rice plant response rating [13]: 70 | Surinam Grass plant response rating (0 to 100 scale) [14, 16]: 50 | Plant response rating, Surinam Grass [14, 17]: 70 | Surinam Grass plant response rating ([14]; 125 g ai/ha): 30 | Surinam Grass plant response rating ([14]; 500 g ai/ha): 60 | Blackgrass plant response rating ([15]; 125 g ai/ha): 10 | Blackgrass plant response rating ([15]; 500 g ai/ha): 20
